These results are taken from patent US20040044304A1, “Local drug delivery using photosensitizer-mediated and electromagnetic radiation enhanced vascular permeability” (priority 2002, published 2004).

Data set [1] can be described thus: Molar extinction coefficient of the photosensitizer. The format is physicochemical. Also noted: Molar extinction coefficient: unit not given here. Particulars: for Peak extinction coefficient: in M-1 cm-1 (unit assumed).
Data set [2] concerns blood vessels within the dorsal window chamber. In kind it is in vivo, mice of strain C3H. The source says:
Male mice of strain C3H (sourced from The Jackson Laboratory, 600 Main Street, Bar Harbor, Me. 04609 USA) weighing between 28-30 gram were surgically implanted with titanium back-pack window chambers in a similar manner to that described for Syrian Golden hamsters as described above. Prior to the surgical procedure, the dorsal surface of the mouse was shaved with electric clippers (Sunbeam Oster 2-Speed, 150 Cadillac Lane, McMinnville, Tenn., 37110) and then the shaved skin covered in a depilatory cream (Nair, Carter Products, New York, N.Y., 10105) for 10 minutes to remove the remaining hair. Then a dorsal skin fold consisting of two layers of skin and muscle tissue was sandwiched between two opposing titanium frames (Campus Research Machine Shop, University of California, San Diego 9500 Gilman Drive, La Jolla, Calif.) with a 14 mm circular opening in each. Layers of skin and muscle fascia were separated from the sub-cutaneous tissue, and removed until a thin monolayer of muscle and one layer of intact skin remained. A coverglass (Type Circle 1, Part #12-545-80 sourced from Fisher Scientific, 2761 Walnut Avenue, Tustin, Calif., 92780) held by an expansion ring in the circular window of one titanium frame was then placed on the exposed tissue to allow direct microscopic visualization of the vasculature. The window in the second opposing titanium frame was left open exposing the intact skin.
Microvascular observations using an intra-vital microscope were not undertaken until at least 2 days post-chamber implantation to mitigate against post-surgical trauma, and to confirm that blood vessels within the chamber were functioning and intact and patent. A chamber was considered suitable for subsequent studies if microscopic examination of the preparation met the following criteria (as applied in Friesenecker et al., 1994):
The intra-vital microscopic studies were undertaken on un-sedated animals held in a Plexiglass tube (manufactured by Miravant Medical Technologies, Inc., 336 Bollay Drive, Santa Barbara, 93117) from which the window chamber sandwich protruded horizontally, allowing visualization of the chamber on the microscope stage. The Plexiglass tube acted to restrain the animals without impeding respiration. The intra-vital microscopy was performed using a Leitz Dialux 22 (West LA Microscope Co., Butler Avenue, Santa Monica, 90025) fitted with a Leitz Wetzlar 20× L20 lens (0.32 numerical aperture), a Leitz Wetzlar 10× Planfluotar lens (0.30 numerical aperture), a Leitz Wetzlar 4× EF lens (0.12 numerical aperture), a Leitz Wetzlar 2.5× P1 lens (0.08 numerical aperture, and an Olympus 20× Wplan water immersion lens (0.4 numerical aperture). The intra-vital microscope system used for these studies was fitted with two trans-illumination light sources and one epi-illumination light source. The two trans-illumination sources were used in the following manner. One trans-illumination light source was used for imaging the tissue within the window chamber, and the other was used as the irradiation source for activating the photosensitizer in the tissue. The imaging source was a […] mercury arc lamp (Type 307-143.004 from Ernst Leitz Wetzlar GmBH, Germany) which was powered by an HBO 100 power supply (LEP Ltd., Scarsdale, N.Y.). The output from this source was filtered using a #H43157 interference filter (Edmund Scientific, 101 East Gloucester Pike, Barrington, N.J., 08007-1380), to produce a beam of 410 nm light. The irradiation source was a Model DD4 Diode Laser (Miravant Medical Technologies 336 Bollay Drive., Santa Barbara, Calif., 93117), which produced 664 nm light.

Structures are written as SMILES.

On to `CCOC(=O)C1=Cc2c3nc(cc4nc(cc5[n-]c(cc6[n-]c2c(C)c6CC)c(C)c5CC)C(C)=C4CC)[C@@H](C)[C@]13CC.[Cl-].[Cl-].[Sn]` (racemic) [SnET2, tin ethyl etiopurpurin], for which the Peak extinction coefficient is given as 165,456 in data set [1] (at 437 nm) and 52,552 in data set [1] (at 661 nm). Moreover, the “Absorbance at activation wavelength relative to peak spectral absorbance” value in data set [1] (green 530 nm-560 nm) was “less than 5%”. Besides, in data set [1] (green wavelength band 530 nm-560 nm), the Molar extinction coefficient is listed as 4312.
`C=Cc1c(C)c2[n]3c1=CC1=NC(=Cc4c(C)c5c([n]4[In]3[Cl])C(=C3N=C(C=2)[C@@H](C)[C@@H]3CCC(=O)OC)CC5=O)C(CC)=C1C` [MV6401, indium methyl pyropheophorbide]: in data set [2] (mouse #2, MV6401 0.05 mg/kg i.v., 664 nm, 15 J/cm^2, 50 mW/cm^2, FITC-Dextran 1 day post PhotoPoint therapy), the “Extravasation of FITC-Dextran from larger vessels in field” value is given as “Pronounced extravasation”. The “Extravasation of FITC-Dextran from many vessels in the treatment field” value in data set [2] (mouse #3, MV6401 0.05 mg/kg i.v., 664 nm, 20 J/cm^2, 50 mW/cm^2, FITC-Dextran 2 days post PhotoPoint therapy) is on record as “flowing. Pronounced”. For the same compound, in data set [2] (mouse, in vivo, iv, 0.05 mg/kg), the Edema in field entry is “Mild edema in field”; the “Focal edema and cellular infiltrate” value is on record as “minor areas of focal”; the “Focal vascular damage in the treatment field, immediately post FITC-Dextran administration” value is “Some evidence of focal”; the “Tissue damage, subsequent observation” value is reported as “damage. Some evidence”. Also, in data set [2] (mouse, in vivo, iv, 0.05 mg/kg), the “Vascular damage, subsequent observation” value is “Pronounced focal vascular”.
